Assays:
[1] = tested on: microtubule detyrosination in keratinocytes; assay: GluTub immunofluorescence of detyrosinated microtubules in zebrafish caudal fin keratinocytes; type: in vivo
Method: (§1) The stock solution was divided into 20-30 μl aliquots and stored at −20 °C until use (maximal 6 months). Immediately prior to use, paclitaxel was diluted in Ringer's solution and added to dechorionated larval zebrafish. The larval fish were placed individually or in small groups into wells of a 12-well plate containing the treatment solutions. The control group was 0.05% DMSO. Plates were incubated at 28.5 °C and protected from light. Treatment lengths are indicated in the Drawings, Description of the Drawings, and Examples where appropriate. […] EMD534085, Eg5 inhibitor (MedChemExpress, Cat. No. HY-15000) was diluted in 100% DMSO to make a 10 mM stock solution and stored at −20 °C. […] The solutions were exchanged every 48 hr.
(§2) Larval fish were transferred into […] glass vials and fixed in 4% paraformaldehyde (PFA)/1× Phosphate-buffered saline (PBS) for 1.5 hr at room temperature, with gentle rocking. Following a 5-minute incubation in 1×PBS+0.1% Tween-20 (PBST), zebrafish were permeabilized in 1×PBS+0.1% Triton X-100 for 10-30 min. Larval fish were transferred into 2 ml reaction tubes and incubated in blocking buffer (1×PBST+5% BSA) for 30 min at room temperature, with rocking. Larval fish were further incubated overnight in antibody solution (Millipore Sigma, Cat. No. AB3201, 1:300 rabbit anti-GluTub; Sigma, Cat No. T6793, 1:500 mouse anti-acetylated tubulin) in blocking buffer at 4 °C, on a rotator. The next morning, larval fish were transferred into 6-well plates and washed 4×15 min in 1×PBST at room temperature, with rocking. This was followed by incubation in secondary antibody (goat anti-rabbit Cy5, Abcam, Cat. No. ab97077; goat anti-mouse Cy3, Abcam, Cat. No. ab97035) and 1:10,000 Hoechst 33342 (ThermoFisher Scientific, Cat. No. 62249, 20 mM solution) in blocking buffer for 1 hr at room temperature, with rocking. Fish were covered to avoid bleaching. […]
Fluorescence intensities were measured using the Imaris MATLAB plugin or Fiji. A line was typically placed over the region of interest and the fluorescence automatically quantified. The values were normalized to nuclear (Hoechst33342) fluorescence intensities within the same fish and region to obtain an intensity ratio.
Stabilized microtubules undergo a modification whereby the terminal tyrosine residue was removed, leading to detyrosination (dMT) (Roll-Mecak et al., 2020, Developmental cell 54: 7-20), which was associated with particularly long-term stabilized microtubule populations (Khawaja et al., 1988, The Journal of cell biology 106: 141-149). Exposure of the penultimate glutamate residue can be detected using a GluTub antibody. […]

nox1 = assay: Nox1 immunofluorescence: subcellular translocation in keratinocytes; type: in vivo, zebrafish; settings: EMD534085 alone, 96 hr
Method: as §1, with “hr. […]” for “hr.”
Measurements were determined by measuring fluorescence intensity in Fiji using single slice and single channel modes. First, a line using the line tool was placed along the plasma membrane that was clearly distinguishable from the cytoplasm due to increased fluorescence compared with the cytoplasm in all treatment groups. The measurement tool was subsequently selected to measure the mean fluorescence intensity. […] To determine the mean cytoplasmic fluorescence intensity, nuclei were first overlaid with Nox1 fluorescence to ensure the exclusion of nuclear measurements. […] The fluorescence data was exported to Excel and the ratios calculated.

Eg5 = Eg5 immunofluorescence in zebrafish caudal fin; type: in vivo; settings: 22 μM paclitaxel, 96 hr
Method: as §1
Larval fish were transferred into […] glass vials and fixed in 4% paraformaldehyde (PFA)/1× Phosphate-buffered saline (PBS) for 1.5 hr at room temperature, with gentle rocking. Following a 5-minute incubation in 1×PBS+0.1% Tween-20 (PBST), zebrafish were permeabilized in 1×PBS+0.1% Triton X-100 for 10-30 min. Larval fish were transferred into 2 ml reaction tubes and incubated in blocking buffer (1×PBST+5% BSA) for 30 min at room temperature, with rocking. […]

[2] = tested on: microtubule acetylation in keratinocytes; assay: Keratinocyte microtubule acetylation (K40); type: in vivo, zebrafish; settings: 22 μM paclitaxel, 96 hr, with and without EMD534085
Method: as §2

## CN(C)CCNC(=O)NC[C@H]1CC[C@@H]2[C@H](O1)c1cc(C(F)(F)F)ccc1N[C@H]2c1ccccc1 [EMD534085]
[1]; EMD534085-treated animals, 96 hr
  microtubule detyrosination with Eg5 inhibition: not modified when animals were treated with EMD534085
[1]; EMD534085 co-administered with 100 nM and 22 μM paclitaxel
  effect on microtubule fasciculation and detyrosination: rescued microtubule fasciculation but not detyrosination
nox1
  Nox1 Membrane:cytoplasmic ratio: 1.7±0.1
  Nox1 Nucleus:cytoplasmic ratio: 1.36±0.08

## CC(=O)O[C@H]1C(=O)[C@@]2(C)[C@H]([C@H](OC(=O)c3ccccc3)[C@]3(O)C[C@H](OC(=O)[C@H](O)[C@@H](NC(=O)c4ccccc4)c4ccccc4)C(C)=C1C3(C)C)[C@]1(OC(C)=O)CO[C@@H]1C[C@@H]2O [paclitaxel]
Eg5
  Eg5 localization/induction: promoted Eg5 puncta formation
[2]
  keratinocyte microtubule acetylation: an increase in keratinocyte microtubule acetylation after 96 hr paclitaxel treatment with and without EMD534085

Source: patent publication US20260345584A1, “METHODS AND PHARMACEUTICAL COMPOSITIONS FOR TREATING CHEMOTHERAPY-INDUCED PERIPHERAL NEUROPATHY WITH EG5 INHIBITORS” (UNIVERSITY OF MIAMI, priority 2023, published 2026)
